Experimental data reported in patent publication US10456390B2, “Combinations comprising MABA compounds and corticosteroids” (ALMIRALL, S.A., priority 2013, dated 2019).

Tested on: IL-8 secretion induced by LPS in peripheral blood neutrophils
Test: Inhibition of IL-8 secretion induced by LPS in isolated peripheral blood neutrophils (ELISA)
Type: cell-based
Conditions: Homo sapiens, Neutrophil; for inhibition at 10 pM: single agent at 0.01 nM
Experimental: 5 Healthy subjects were included for leukocyte experiments. Pulmonary function tests (forced spirometry) and arterial blood gas measurements were performed during the days prior to sample.
Neutrophils were isolated from peripheral blood of healthy volunteers according to standard procedures established in the laboratory (Milara J et al., Respiration 2012; 83, 147-158).
Isolated neutrophils were incubated with different drugs (MABA compound, mometasone or fluticasone) or vehicle for 30 minutes before incubation with LPS (1 mcg/mL) (Lipopolysaccharide, a representative stimulus as inflammatory mediator) for 6 hours in standard cell culture conditions (37° C. and 5% CO2). Supernatant were collected to measure IL-8 (the inflammatory marker).
IL-8 (Interleukin-8) was determined by ELISA according to the standard procedure.
Data was presented as mean±SEM (see FIG. 1 and FIG. 2). Statistical analysis of results was carried out by analysis of variance (ANOVA) followed by Bonferroni test, by Student's t test, or by non-parametric tests as appropriate (GraphPad Software Inc, San Diego, Calif., USA). Significance was accepted when P<0.05.

[1] = 30 min pre-incubation, LPS 1 mcg/mL 6 h, neutrophils from healthy subjects (5 volunteers in triplicate), Table 1

Structure (SMILES) | inhibition at 10 pM [1] [%] | inhibition at 10 pM (LPS-induced IL-8 secretion, neutrophils from healthy subjects, Table 2) [%] | inhibition at 0.0001 µM (single agent at 0.1 nM, LPS-induced IL-8 secretion, neutrophils from healthy subjects, Table 2) [%]
CN(CCCn1nnc2cc(CNC[C@H](O)c3ccc(O)c4[nH]c(=O)ccc34)ccc21)[C@H]1CC[C@H](OC(=O)C(O)(c2cccs2)c2cccs2)CC1 [Cpd 2, Trans-4-[{3-[5-({[(2R)-2-hydroxy-2-(8-hydroxy-2-oxo-1,2-dihydroquinolin-5-yl)ethyl]amino}methyl)-1H-1,2,3-benzotriazol-1-yl]propyl}(methyl)amino]cyclohexyl hydroxy(di-2-thienyl)acetate] | 4.17 | 4.17 | 
C[C@@H]1C[C@H]2[C@@H]3C[C@H](F)C4=CC(=O)C=C[C@]4(C)[C@@]3(F)[C@@H](O)C[C@]2(C)[C@@]1(O)C(=O)SCF [Fluticasone, fluticasone] |  |  | 10.2
C[C@@H]1C[C@H]2[C@@H]3CCC4=CC(=O)C=C[C@]4(C)[C@@]3(Cl)[C@@H](O)C[C@]2(C)[C@@]1(O)C(=O)CCl [Mometasone, mometasone] | 2.85 |  | 
